Data as given in article PMC11768083, “Crude Drugs for Clearing Heat Contain Compounds Exhibiting Anti-Inflammatory Effects in Interleukin-1β-Treated Rat Hepatocytes” (Molecules, 2025).
Entries after “also recorded” stand apart in the source; their conditions may differ. Like-named read-outs stand apart in the source and are kept apart here.

Key:
iNOS mRNA = assay: RT-qPCR of iNOS mRNA in IL-1β-treated hepatocytes; type: cell-based, rat; details: with IL-1β; normalized to Ef1a mRNA; versus IL-1β alone
Description: (§1) After acclimatization, the Wistar rats were euthanized by the intraperitoneal administration of an anesthetic combination of medetomidine hydrochloride, midazolam, and butorphanol tartrate. Rat livers were used to prepare hepatocytes as previously described. In brief, the liver was perfused with collagenase. The cells were resuspended in Williams’ E (WE) medium supplemented with 10% newborn calf serum, 10 nM dexamethasone, and 10 nM human insulin and seeded at 1.2 ×10^6 cells per 35 mm diameter dish. After the medium was replaced with serum-free WE medium, the cells were incubated overnight. The next day, the medium was replaced with WE medium containing 1 nM recombinant rat IL-1β [54] and/or a fraction or compound. The hepatocytes were further incubated at 37 °C for 4 h before RNA extraction or for 8 h before measuring the NO levels and performing a Western blot analysis of the cell lysates.
(§2) Hepatocytes were lysed in Sepasol I Super G solution (Nacalai Tesque, Inc.) to extract total RNA, which was purified using an RNAqueous Kit and a TURBO DNA-free Kit (Applied Biosystems, Austin, TX, USA). The resulting RNA was converted to cDNA, which was amplified by PCR in triplicate with primers, SYBR Green I, and the Thermal Cycler Dice Real-Time System (Takara Bio Inc.). Ct values were calculated by the ΔΔCt method and then normalized to elongation factor 1α (Ef1a) mRNA [18, 54]. The mRNA levels normalized to the total RNA from the livers of the mice fed a diet alone were set at 100%.

Il1r1 mRNA [1] = assay: RT-qPCR of Il1r1 mRNA in IL-1β-treated hepatocytes; type: cell-based, rat; details: with IL-1β; normalized to Ef1a mRNA; versus IL-1β alone
Description: as §1
as §2, with “The mRNA levels normalized to the total RNA from the livers of the mice fed a diet alone were set at 100%.” left out

[2] = system: primary-cultured rat hepatocytes; assay: LDH activity in the hepatocyte medium (cytotoxicity); type: cell-based; details: for Cytotoxicity / LDH activity of the medium: hepatocytes, 8 h incubation; for LDH activity in the medium (cytotoxicity): at the concentrations of the NO assay, 8 h
Description: (§3) After 8 h of incubation with 1 nM IL-1β and/or a fraction or compound, nitrite (a stable metabolite of NO) was measured in triplicate using the Griess method. The NO concentration in the medium alone was set at 0%, whereas the concentration in the medium including IL-1β alone was set at 100%. […] Cytotoxicity was monitored by estimating the LDH activity in the medium using LDH Cytotoxicity Detection Kits (Takara Bio Inc., Kusatsu, Japan). The Griess reagent was added to the medium and incubated at 20–23 °C for 5 min, and the absorbance at 540 nm was measured to determine the decrease in nitrite. The LDH activity of the whole-cell extract was assumed to be 100%, whereas the LDH activity of the medium alone was assumed to have no cytotoxicity (i.e., less than 5% of the LDH activity of the whole-cell extract).

[3] = system: NO production in IL-1β-treated rat hepatocytes; assay: NO production (nitrite, Griess method) in IL-1β-treated primary-cultured rat hepatocytes; type: cell-based; details: for IC50: Rattus norvegicus, Hepatocyte
Description: as §1, §3

Tnf mRNA = assay: RT-qPCR of Tnf mRNA in IL-1β-treated hepatocytes; type: cell-based, rat; details: with IL-1β; normalized to Ef1a mRNA; versus IL-1β alone
Description: as §1, §2

[4] = system: NO production in IL-1β-treated rat hepatocytes; details: cited from earlier work
lymphotoxin β (Ltb) mRNA = assay: RT-qPCR of Ltb mRNA in IL-1β-treated hepatocytes; type: cell-based, rat; details: with IL-1β, 4 h; normalized to Ef1a mRNA
Description: as §1
as §2, with “The mRNA levels normalized to the total RNA from the livers of the mice fed a diet alone were set at 100%.” left out

iNOS protein = assay: Immunoblot of iNOS protein in IL-1β-treated hepatocytes; type: cell-based, rat; details: with IL-1β, 8 h; β-tubulin control
Description: as §1
Hepatocyte lysates were prepared, resolved on a 10% sodium dodecyl sulfate–polyacrylamide gel, and transferred onto a membrane, as previously described. […] The protein of interest was visualized by ECL Western blotting Detection Reagents (Cytiva, Tokyo, Japan) and detected using an Amersham Imager 600 (Cytiva).

[5] = system: iNOS antisense transcript (iNOS-AS); assay: RT-qPCR of iNOS antisense transcript in IL-1β-treated hepatocytes; type: cell-based, rat; details: with IL-1β; RNA 3 h after addition
Description: as §1, with “The hepatocytes were further incubated at 37 °C for 4 h before RNA extraction or for 8 h before measuring the NO levels and performing a Western blot analysis of the cell lysates.” left out
as §2

[6] = system: rat liver injuries caused by ischemia–reperfusion and partial hepatectomy; parameters: method as in PMID 38727775; details: cited from earlier work
[7] = system: iNOS antisense transcript (iNOS-AS); parameters: method as in PMID 28681120, doi:10.7243/2050-0874-1-2, PMID 27774888; details: cited from earlier work
Il1r1 mRNA [8] = details: cited from earlier work
[9] = system: LPS-treated RAW264.7 cells; parameters: method as in PMID 38339007; details: read-out: IC50 for NO production; cited from earlier work
[10] = 1 nM IL-1β, 8 h, means ± SDs, at least three experiments, read-out: IC50 (μM) for NO production in IL-1β-stimulated hepatocytes
[11] = constituents of Atractylodes chinensis rhizomes
[12] = means ± SDs, read-out: IC50 (μM) for NO production in IL-1β-stimulated hepatocytes

COc1cc(C2OCC3C(c4ccc(OC)c(OC)c4)OCC23)ccc1O (single isomer, unassigned; (+)) [(+)-Phillygenin, (+)-phillygenin]
iNOS mRNA level (iNOS mRNA): decreased | Il1r1 mRNA level (Il1r1 mRNA [1]): decreased | Cytotoxicity / LDH activity of the medium [2]: background LDH activity at concentrations up to 300 μM; also recorded: without showing cytotoxicity | IC50 [3, 10]: 193 ± 47.6 µM | Tnf mRNA level (Tnf mRNA): decreased

CC1=CCC[C@H](C)[C@@]12CC[C@@H](C(C)(C)O)C2 [(+)-hinesol]
IC50 for inhibition of NO production in hepatocytes [4, 11]: could not be calculated

C=C[C@H](/C=C\c1ccc(O)cc1)c1ccc(O)cc1 [(−)-Nyasol, (−)-nyasol]
iNOS mRNA level (iNOS mRNA): significantly decreased | Ltb mRNA level (lymphotoxin β (Ltb) mRNA): significantly reduced | LDH activity in the medium (cytotoxicity) [2]: < 5 % of the activity of the whole-cell extract | IC50 [3, 10]: 18.3 ± 2.99 µM | Tnf mRNA level (Tnf mRNA): significantly reduced

O=c1cc(-c2ccccc2)oc2cc(O)c(O)c(O)c12 [Baicalein, baicalein]
iNOS mRNA level (iNOS mRNA): reduced | iNOS protein level (iNOS protein): reduced | iNOS-AS level [5]: inhibited iNOS-AS in a concentration-dependent manner | LDH activity in the medium (cytotoxicity) [2]: < 5 % of the activity of the whole-cell extract | Liver injury [6]: attenuated | IC50 [3, 10]: 16.8 ± 7.93 µM

O=C(O)[C@H]1O[C@@H](Oc2cc3oc(-c4ccccc4)cc(=O)c3c(O)c2O)[C@H](O)[C@@H](O)[C@@H]1O [Baicalin]
IC50 relative to that of baicalein ([3]; IL-1β-treated hepatocytes, greater than baicalein): 3.3 fold | IC50 ([3]; authors' unpublished data (A.F., K.I., M.N.), read-out: IC50 for NO production in IL-1β-treated hepatocytes): 55 µM

COc1ccc2cc3[n+](cc2c1OC)CCc1cc2c(cc1-3)OCO2 [Berberine]
IC50 [4, 12]: 12 ± 3.4 µM

O=C(/C=C/c1ccc(O)c(O)c1)O[C@@H]1C[C@](O)(C(=O)O)C[C@@H](O)[C@H]1O [Chlorogenic acid]
iNOS-AS level [7]: reducing iNOS-AS | IC50 [4, 12]: 652 ± 114 µM

COC(=O)C1=CO[C@@H](O)[C@@H]2C(CO)=CC[C@H]12 [Genipin, genipin]
iNOS-AS level [7]: reducing iNOS-AS | IC50 [3, 10]: 4.4 ± 0.85 µM

O=c1cc(-c2ccc(Oc3ccc(-c4cc(=O)c5c(O)cc(O)cc5o4)cc3O)cc2)oc2cc(O)cc(O)c12 [Loniflavone, loniflavone]
iNOS mRNA level (iNOS mRNA): decreased | Il1r1 mRNA level (Il1r1 mRNA [1]): significantly decreased | Cytotoxicity / LDH activity of the medium [2]: Cytotoxicity was not observed | IC50 [3, 10]: 1.64 ± 0.17 µM | Tnf mRNA level (Tnf mRNA): decreased

CC1(C)OC(=O)C=C[C@]2(C)[C@H]3CC[C@@]4(C)[C@H](c5ccoc5)OC(=O)[C@H]5O[C@]54[C@]3(C)C(=O)C[C@@H]12 [Obakunone]
iNOS-AS level [7]: reducing iNOS-AS | IC50 [4, 12]: 2.6 ± 1.1 µM

COc1cc(O)c2c(c1)O[C@H](c1ccc(O)cc1)CC2=O [Sakuranetin, (S)-(–)-4′,5-dihydroxy-7-methoxyflavanone]
Il1r1 gene expression (Il1r1 mRNA [8]): decreases

CC(=O)Oc1ccccc1C(=O)O [aspirin]
Il1r1 gene expression (Il1r1 mRNA [8]; rat hepatocytes): suppress

C/C=C/C#CC#C/C=C/c1ccco1 [atractylodin]
IC50 ([4]; constituents of Atractylodes chinensis rhizomes, read-out: IC50 for inhibition of NO production in hepatocytes): 8.25 µM

C=C(C)[C@@H]1CC[C@]2(C(=O)O)CC[C@]3(C)[C@H](CC[C@@H]4[C@@]5(C)CC[C@H](O)C(C)(C)[C@@H]5CC[C@]43C)[C@@H]12 [betulinic acid, reference compound]
Cytotoxicity / LDH activity of the medium [2]: increased LDH activity in a concentration-dependent manner

COC(=O)C1=CO[C@@H](O[C@@H]2O[C@H](CO)[C@@H](O)[C@H](O)[C@H]2O)[C@@H]2C(CO)=CC[C@H]12 [geniposide]
IC50 [9]: 136 µM | Effect on IL-1β-induced NO production ([3]; IL-1β-treated hepatocytes): did not decrease NO production | Inhibition of NO production ([3]; up to a final concentration of 800 μM): did not inhibit NO production

CC(C(=O)O)c1ccc(CC2CCCC2=O)cc1 (centres unmarked) [loxoprofen]
Il1r1 gene expression (Il1r1 mRNA [8]; rat hepatocytes): suppress

CC1(C)CC[C@]2(C(=O)O)CC[C@]3(C)C(=CC[C@@H]4[C@@]5(C)CC[C@H](O)C(C)(C)[C@@H]5CC[C@]43C)[C@@H]2C1 [oleanolic acid, reference compound]
Cytotoxicity / LDH activity of the medium [2]: increased LDH activity in a concentration-dependent manner

C=C1CCC[C@]2(C)CC[C@@H](C(C)(C)O)C[C@@H]12 [β-eudesmol]
IC50 for inhibition of NO production in hepatocytes [4, 11]: could not be calculated
